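Protocol summary: plate cells (96-well), add compound at 5 concentrations, incubate 48 h, interpolate endpoints linearly. Abbreviation: GI50, concentration required for 50% inhibition of growth.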 Activity calls are given as the source filed them. Rule as the data show it: active = GI50 up to about 1.1 µM and inactive = higher.
What was measured:
Assay in all cases: NCI-60 cell line screen, 48 h
[1] = system: NCI-H460
[2] = system: MOLT-4
[3] = system: SF-268
[4] = system: M14
[5] = system: HCC 2998
[6] = system: SN12C
[7] = system: SR
[8] = system: MDA-N
[9] = system: MDA-MB-231
[10] = system: UACC-62
[11] = system: RPMI-8226
[12] = system: NCI-H226
[13] = system: SNB-19
[14] = system: MCF7
[15] = system: NCI-H23
[16] = system: HCT-15
[17] = system: RXF 393
[18] = system: UO-31
[19] = system: UACC-257
[20] = system: A498

| Compound | GI50 [1] | GI50 [2] | GI50 [3] | GI50 [4] | GI50 [5] | GI50 [6] | GI50 [7] | GI50 [8] | GI50 [9] | GI50 [10] | GI50 [11] | GI50 [12] | GI50 [13] | GI50 [14] | GI50 [15] | GI50 [16] [µM] | GI50 [17] | GI50 [18] | GI50 [19] | GI50 [20] |
| --- | --- | --- | --- | --- | --- | --- | --- | --- | --- | --- | --- | --- | --- | --- | --- | --- | --- | --- | --- | --- |
| CC(=O)Oc1cc2c(cc1OCC(F)(F)F)[C@H]1CC[C@]3(C)[C@@H](OC(C)=O)CC[C@H]3[C@@H]1CC2=O | 26.9 µM (inactive) | 15.6 µM (inactive) | 21.1 µM (inactive) | 26.4 µM (inactive) | 16.8 µM (inactive) | 21 µM (inactive) | 20.7 µM (inactive) | 24.1 µM (inactive) | 11.1 µM (inactive) | 12.2 µM (inactive) | 22.3 µM (inactive) | 46.6 µM (inactive) | 18.8 µM (inactive) | 18.9 µM (inactive) | 21.2 µM (inactive) | 16.6 | 13.9 µM (inactive) | 16 µM (inactive) | 18.9 µM (inactive) | 6.18 µM (inactive) |
| Cc1c(-c2nc(N)nc(C3CC3)c2C)nc(N)nc1C1CC1 | > 100 µM (inactive) | > 100 µM (inactive) | > 100 µM (inactive) | > 100 µM (inactive) | > 100 µM (inactive) | > 100 µM (inactive) | > 100 µM (inactive) | > 100 µM (inactive) | > 100 µM (inactive) | > 100 µM (inactive) | > 100 µM (inactive) | > 100 µM (inactive) | > 100 µM (inactive) | > 100 µM (inactive) | > 100 µM (inactive) | > 100 | > 100 µM (inactive) | > 100 µM (inactive) | > 100 µM (inactive) | > 100 µM (inactive) |
| COc1ccc(SCc2cc(OC)ccc2OC)cc1 | 37.4 µM (inactive) | 8.24 µM (inactive) | > 56.6 µM (inactive) | 57.5 µM (inactive) | 9.77 µM (inactive) | 55.3 µM (inactive) | 6.55 µM (inactive) | 3.33 µM (inactive) | 82.2 µM (inactive) | 18.8 µM (inactive) | 34 µM (inactive) | 25.3 µM (inactive) | 34 µM (inactive) | 15.1 µM (inactive) | 37.9 µM (inactive) | 6.58 | 40.6 µM (inactive) | 27.6 µM (inactive) | 74 µM (inactive) | 18.7 µM (inactive) |
| CC(=O)OC[C@@]1(C)[C@@H]2[C@@H]3[C@@]4(CO[C@]3(C)C(=O)[C@@]3(O)C[C@H](C)[C@H](OC(C)=O)[C@@H]3[C@H]4OC(C)=O)[C@H](OC(=O)c3ccccc3)C[C@@H]21 | > 100 µM (inactive) | > 100 µM (inactive) | > 100 µM (inactive) | > 100 µM (inactive) | > 100 µM (inactive) | > 100 µM (inactive) | > 100 µM (inactive) | > 100 µM (inactive) | > 100 µM (inactive) | > 100 µM (inactive) | > 100 µM (inactive) | > 100 µM (inactive) | > 100 µM (inactive) | > 100 µM (inactive) | > 100 µM (inactive) | > 100 | > 100 µM (inactive) | > 100 µM (inactive) | > 100 µM (inactive) | > 100 µM (inactive) |
| Cc1cccc(/N=N/c2c(C)nn(C(=O)CC(=O)Nc3ccc(Cl)cc3)c2C)c1 | 85.3 µM (inactive) | 36.6 µM (inactive) | 55.2 µM (inactive) | 48.3 µM (inactive) | > 100 µM (inactive) | > 100 µM (inactive) | 20.8 µM (inactive) | 83.8 µM (inactive) | 20.7 µM (inactive) | > 100 µM (inactive) | > 100 µM (inactive) | 20 µM (inactive) | 80.5 µM (inactive) | > 100 µM (inactive) | > 100 µM (inactive) | 47.8 | 48.1 µM (inactive) | > 100 µM (inactive) | > 100 µM (inactive) | 43.8 µM (inactive) |
| N#CCCN(CCC#N)c1ccc(C(/N=N/c2ccc(Cl)cc2)=N\c2ccccc2)cc1 | 7.78 µM (inactive) | 22.7 µM (inactive) | 13.2 µM (inactive) | 12.9 µM (inactive) | 6.55 µM (inactive) | 18.4 µM (inactive) | 16 µM (inactive) | 10.9 µM (inactive) | 18.1 µM (inactive) | 6.49 µM (inactive) | 43.6 µM (inactive) | 16 µM (inactive) | 12.2 µM (inactive) | 11.7 µM (inactive) | 12.6 µM (inactive) | 5.93 | 15.4 µM (inactive) | 8.91 µM (inactive) | 7.83 µM (inactive) | 17.6 µM (inactive) |
| COC(=O)C1C(=O)C=CN([C@H](C)c2ccccc2)[C@@H]1Cc1ccc(OC)c(OCc2ccccc2)c1I (stereo not given in full) | 15.5 µM (inactive) | 8.79 µM (inactive) | 14.9 µM (inactive) | 14.5 µM (inactive) | 14.3 µM (inactive) | 14.3 µM (inactive) | 3.14 µM (inactive) | 15.6 µM (inactive) | 18.3 µM (inactive) | 12.3 µM (inactive) | 14.9 µM (inactive) | 15.8 µM (inactive) | 15 µM (inactive) | 17.6 µM (inactive) | 17 µM (inactive) | 7.1 | 11.8 µM (inactive) | 12 µM (inactive) | 18.2 µM (inactive) | 14.5 µM (inactive) |
| C/C(=C\C(=O)O)C(=O)N(C)c1ccccc1I | > 100 µM (inactive) | > 100 µM (inactive) | > 100 µM (inactive) | > 100 µM (inactive) | > 100 µM (inactive) | > 100 µM (inactive) | > 100 µM (inactive) | > 100 µM (inactive) | > 100 µM (inactive) | > 100 µM (inactive) | > 100 µM (inactive) | > 100 µM (inactive) | > 100 µM (inactive) | > 100 µM (inactive) | > 100 µM (inactive) | > 100 | > 100 µM (inactive) | > 100 µM (inactive) | > 100 µM (inactive) | > 100 µM (inactive) |
| CC1C=C(NCC2(CO)CCC2)N=C(N)N1 (stereo not given) | > 100 µM (inactive) | > 100 µM (inactive) | > 100 µM (inactive) | > 100 µM (inactive) | > 100 µM (inactive) | > 100 µM (inactive) | > 100 µM (inactive) | > 100 µM (inactive) | > 100 µM (inactive) | > 100 µM (inactive) | > 100 µM (inactive) | > 100 µM (inactive) | > 100 µM (inactive) | > 100 µM (inactive) | > 100 µM (inactive) | > 100 | > 100 µM (inactive) | > 100 µM (inactive) | > 100 µM (inactive) | 91.6 µM (inactive) |
| CC(C)/C(Cl)=N\OC(=O)Nc1ccc(F)c([N+](=O)[O-])c1 | 2.41 µM (inactive) | 1.57 µM (inactive) | 14.3 µM (inactive) | 3.88 µM (inactive) | 10.5 µM (inactive) | 5.83 µM (inactive) | 5.65 µM (inactive) | 14 µM (inactive) | 12.7 µM (inactive) | 17.6 µM (inactive) | 2.43 µM (inactive) | 23.7 µM (inactive) | 16.7 µM (inactive) | 17.7 µM (inactive) | 17.1 µM (inactive) | 2.59 | 18 µM (inactive) | 6.56 µM (inactive) | 16.1 µM (inactive) | 19.2 µM (inactive) |
| Nc1ccc2c(c1)C(=O)c1ccc(F)cc1-2 | > 100 µM (inactive) | 57.8 µM (inactive) | > 100 µM (inactive) | > 100 µM (inactive) | > 100 µM (inactive) | > 100 µM (inactive) | 87.1 µM (inactive) | > 100 µM (inactive) | > 100 µM (inactive) | > 100 µM (inactive) | > 100 µM (inactive) | > 100 µM (inactive) | > 100 µM (inactive) | > 100 µM (inactive) | > 100 µM (inactive) | > 100 | 44.4 µM (inactive) | > 100 µM (inactive) | > 100 µM (inactive) | > 100 µM (inactive) |
| O=C(c1ccccc1)c1ccc2c(c1)nc1n2C(c2c(Cl)cccc2Cl)SC1 (stereo not given) | 40.2 µM (inactive) | 31.4 µM (inactive) | 67.5 µM (inactive) | 48.2 µM (inactive) | > 100 µM (inactive) | > 100 µM (inactive) | 34 µM (inactive) | 41.7 µM (inactive) | > 100 µM (inactive) | 74.1 µM (inactive) | 52.4 µM (inactive) | > 100 µM (inactive) | 77.1 µM (inactive) | 39.4 µM (inactive) | 47.4 µM (inactive) | 56 | 79.8 µM (inactive) | 23.9 µM (inactive) | 95.5 µM (inactive) | 58.7 µM (inactive) |
| CN(C)c1ccc2c(SCC(=O)OCC(=O)[C@@]3(O)CC[C@H]4[C@@H]5CCC6=CC(=O)C=C[C@]6(C)[C@H]5C(=O)C[C@@]43C)c3ccc(N(C)C)cc3nc2c1 | 3.24 µM (inactive) | 2.65 µM (inactive) | 5.82 µM (inactive) | 27.8 µM (inactive) | 6 µM (inactive) | 7.01 µM (inactive) | 1.35 µM (inactive) | 14.4 µM (inactive) | 27.5 µM (inactive) | 10.8 µM (inactive) | 14.6 µM (inactive) | 14.8 µM (inactive) | 23.7 µM (inactive) | 7.03 µM (inactive) | 16.7 µM (inactive) | 3.3 | 32.7 µM (inactive) | 10.3 µM (inactive) | 15.7 µM (inactive) | > 54.3 µM (inactive) |
| CC1(C)[C@@H]2CC[C@@]1(C)C1(S[S+]1[O-])C21Cc2ccccc2C1 (stereo not given in full) | 21.5 µM (inactive) | 16.3 µM (inactive) | 33.1 µM (inactive) | 33.4 µM (inactive) | 18.5 µM (inactive) | 18.1 µM (inactive) | 14.5 µM (inactive) | 17.1 µM (inactive) | 17.3 µM (inactive) | 22.2 µM (inactive) | 21 µM (inactive) | > 100 µM (inactive) | > 100 µM (inactive) | 22.1 µM (inactive) | 31.8 µM (inactive) | 22.6 | 18.5 µM (inactive) | 21.4 µM (inactive) | 20.9 µM (inactive) | 28.7 µM (inactive) |

Reference: ChEMBL document CHEMBL1201862, “PubChem BioAssay data set” (2004)
